# Measured values taken from paper PMC6892276 (European Journal of Pharmaceutical Sciences, 2019).
# Tests used:
# Aurora-A = molecular target: T1, Aurora-A (Homo sapiens, UniProt O14965); assay: KINOMEscan Kd determination against Aurora-A; format: binding; conditions: 11-point 3-fold dilution series, top concentration 5 μM
# T1 sequence (O14965 1-403): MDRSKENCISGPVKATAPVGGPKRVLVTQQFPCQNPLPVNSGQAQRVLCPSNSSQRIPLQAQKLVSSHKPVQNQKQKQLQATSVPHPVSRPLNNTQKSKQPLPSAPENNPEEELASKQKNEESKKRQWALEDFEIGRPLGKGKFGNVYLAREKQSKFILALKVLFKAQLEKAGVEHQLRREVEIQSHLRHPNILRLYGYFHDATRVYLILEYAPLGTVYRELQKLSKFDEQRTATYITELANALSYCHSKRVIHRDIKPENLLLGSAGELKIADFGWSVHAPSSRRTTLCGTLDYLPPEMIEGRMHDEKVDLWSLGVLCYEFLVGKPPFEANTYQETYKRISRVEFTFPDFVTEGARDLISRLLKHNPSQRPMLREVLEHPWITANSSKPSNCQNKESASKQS
# Procedure: (§1) Kds were determined using an 11-point 3-fold compound dilution series (top concentration 5 μM) with three DMSO control points.
# [1] = Metabolite profiling in mouse hepatocytes and MLM; format: in vitro ADME; conditions: for % total metabolite response: MLM 1 mg/ml, 1 μM; for maximal metabolite abundance, % of T0 parent (LC-MS/MS response): mouse hepatocytes and MLM; for % T0 parent response, minor metabolites: mouse, matrix not stated
# Procedure: (§2) Suspended hepatocyte incubations for the purposes of metabolite identification and CLint determination were conducted as described by [Wood et al. (2018)] in round-bottomed 350 μl 96-well polypropylene plates on a PHMP thermoshaker (Grant Instruments (Cambridge) Ltd. (Shepreth, UK)) at 37 °C and 900 rpm. […] Individual wells were quenched with 120 μl of methanol containing internal standard over a time course (Table 1) and an aliquot removed for analysis.
# (§3) Prior to initiation of the reaction by the addition of NADPH (final concentration 1 mM), an aliquot was removed from each incubation and quenched in ice cold methanol containing internal standard (referred to as T0). NADPH was subsequently added to this solution for matrix matching. The remaining reaction (with addition of NADPH) was allowed to proceed for 60 min. At 0.5, 5, 15, 30 and 60 min aliquots were sampled and quenched as above. Incubations were conducted in singlicate; control incubations (substituting PBS for NADPH) were conducted simultaneously.
# (§4) For the purpose of metabolite identification, samples were analysed using a Dionex Ultimate 3000 UHPLC system coupled to a ThermoScientific Q Exactive Plus orbitrap mass spectrometer (Thermo Fisher Scientific Inc., Waltham, USA). Separation of analytes was achieved using an Acquity UPLC HSS T3 column (1.8 μm, 100 × 2.1 mm) (Waters, Elstree, UK) at a temperature of 50 °C and a binary mobile phase gradient at a flow rate of 0.4 ml/min. Initial conditions comprised 10% solvent A (0.1% formic acid in water), 90% solvent B (methanol); this was ramped to 95% A at 12 min, immediately returned to initial conditions and held for the remaining 3 min of the method. The UV absorbance of samples at 230 nm and 260 nm was monitored using a Dionex Ultimate 3000 diode array detector. Sample analysis was by electrospray atmospheric pressure ionization combined with full scan acquisition in positive ion mode over a mass range 80–1200 m/z. The capillary voltage was 3.5 kV; desolvation gas and capillary temperatures were 450 °C and 275 °C respectively; sheath, aux and sweep gas flow rates were 55, 15 and 3 respectively. Full MS/dd-MS^2 (full MS scan followed by data dependent MS/MS) and Full MS/AIF (full MS scan followed by all ion fragmentation) workflows were used in combination.
# (§5) Identification of metabolites and elucidation of their proposed structures was undertaken with the aid of the software Compound Discoverer (v2.0.0.303, Thermo Fisher Scientific Inc., Waltham, USA). RAW data files containing accurate mass data and fragmentation spectra generated in the acquisition software Chromeleon (v7.2 SR3 (7553), Thermo Fisher Scientific Inc., Waltham, USA) were input into Compound Discoverer and processed using the targeted workflow described in Fig. 1 of the Appendix. The final time point of a parallel incubation of a different compound was used as a sample blank and any chromatographic peaks identified with the same m/z and retention time as in this sample were marked as background compounds and therefore not considered as potential metabolites. The Compound Discoverer application combines accurate mass data, isotope pattern matching and predicted biotransformations based on the parent compound's structure to generate a series of expected and unexpected compounds or metabolites. These were manually filtered using a typical criteria of peak area greater than or equal to 5000 counts per sec; compound identified in samples of at least three time points and peak area ratio of compound in Tx relative to T0 greater than or equal to 2, where Tx represents any given time point. […] The fragmentation spectra of these analytes were compared to those of the parent to facilitate structural interpretation of biotransformations. […]
# Aurora-B = Aurora-B (Homo sapiens, UniProt Q96GD4); assay: KINOMEscan Kd determination against Aurora-B; format: binding; conditions: 11-point 3-fold dilution series, top concentration 5 μM
# Aurora-B, sequence (Q96GD4 whole entry): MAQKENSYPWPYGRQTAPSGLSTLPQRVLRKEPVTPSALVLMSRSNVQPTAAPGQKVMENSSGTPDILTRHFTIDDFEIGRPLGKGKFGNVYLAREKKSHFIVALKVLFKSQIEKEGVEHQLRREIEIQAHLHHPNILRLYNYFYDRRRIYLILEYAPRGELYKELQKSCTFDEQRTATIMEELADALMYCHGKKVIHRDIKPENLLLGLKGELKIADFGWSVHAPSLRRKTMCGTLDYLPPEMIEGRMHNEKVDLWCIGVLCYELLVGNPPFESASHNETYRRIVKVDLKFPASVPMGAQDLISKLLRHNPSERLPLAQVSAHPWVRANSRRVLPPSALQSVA
# Procedure: as §1
# [2] = Metabolite profiling in human hepatocytes and HLM; format: in vitro ADME; conditions: for metabolite abundance, % of T0 parent (LC-MS response): HLM only
# Procedure: as §2, §3, §4, §5
# FLT3 = molecular target: T2, FLT3 (Homo sapiens, UniProt P36888); assay: KINOMEscan Kd determination against FLT3; format: binding; conditions: 11-point 3-fold dilution series, top concentration 5 μM
# T2 sequence (P36888 27-993): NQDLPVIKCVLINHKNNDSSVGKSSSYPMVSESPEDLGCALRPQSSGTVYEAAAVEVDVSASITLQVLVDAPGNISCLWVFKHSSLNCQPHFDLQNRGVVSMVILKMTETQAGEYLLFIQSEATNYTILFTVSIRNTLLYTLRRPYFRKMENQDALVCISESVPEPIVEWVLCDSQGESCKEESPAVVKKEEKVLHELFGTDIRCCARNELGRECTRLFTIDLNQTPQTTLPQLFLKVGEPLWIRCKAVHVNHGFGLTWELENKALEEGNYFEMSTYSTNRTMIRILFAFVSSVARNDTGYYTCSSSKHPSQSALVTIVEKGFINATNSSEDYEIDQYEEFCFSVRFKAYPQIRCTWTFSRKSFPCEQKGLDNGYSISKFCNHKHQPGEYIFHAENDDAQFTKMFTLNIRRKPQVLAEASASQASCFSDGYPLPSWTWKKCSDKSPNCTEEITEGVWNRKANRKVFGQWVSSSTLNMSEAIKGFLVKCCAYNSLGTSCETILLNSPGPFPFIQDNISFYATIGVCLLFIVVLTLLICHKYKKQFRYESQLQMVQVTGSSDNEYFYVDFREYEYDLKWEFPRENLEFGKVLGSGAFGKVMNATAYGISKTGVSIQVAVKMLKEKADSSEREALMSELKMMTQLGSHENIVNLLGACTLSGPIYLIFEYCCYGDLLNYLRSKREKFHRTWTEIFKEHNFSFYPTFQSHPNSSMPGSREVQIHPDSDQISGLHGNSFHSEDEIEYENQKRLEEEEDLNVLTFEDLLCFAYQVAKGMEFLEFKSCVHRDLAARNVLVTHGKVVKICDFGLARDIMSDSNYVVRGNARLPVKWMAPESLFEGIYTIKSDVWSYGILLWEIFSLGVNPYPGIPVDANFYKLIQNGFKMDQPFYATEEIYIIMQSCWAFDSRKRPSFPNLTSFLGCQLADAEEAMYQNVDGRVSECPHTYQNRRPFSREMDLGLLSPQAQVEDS
# Procedure: as §1
# FLT3-ITD = molecular target: T3, FLT3-ITD (Homo sapiens, UniProt P36888, ITD); assay: KINOMEscan Kd determination against FLT3-ITD; format: binding; conditions: 11-point 3-fold dilution series, top concentration 5 μM
# T3 sequence (P36888 564-993): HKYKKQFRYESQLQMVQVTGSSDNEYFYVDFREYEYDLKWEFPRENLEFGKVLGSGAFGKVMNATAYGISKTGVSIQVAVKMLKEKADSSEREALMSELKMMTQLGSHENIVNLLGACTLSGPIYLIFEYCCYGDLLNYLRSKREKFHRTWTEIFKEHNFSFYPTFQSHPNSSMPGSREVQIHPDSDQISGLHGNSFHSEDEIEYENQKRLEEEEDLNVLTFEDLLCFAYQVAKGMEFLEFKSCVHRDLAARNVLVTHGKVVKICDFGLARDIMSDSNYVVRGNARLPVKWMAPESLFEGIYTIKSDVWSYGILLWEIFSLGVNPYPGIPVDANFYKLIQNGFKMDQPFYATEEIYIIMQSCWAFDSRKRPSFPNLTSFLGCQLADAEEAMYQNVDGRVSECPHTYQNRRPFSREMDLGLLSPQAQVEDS
# Procedure: as §1
# [3] = Metabolite profiling in dog hepatocytes and DLM; format: in vitro ADME; conditions: dog hepatocytes and microsomes of both sexes
# Procedure: as §2, §3
# (§6) For the purpose of metabolite identification, samples were analysed using a Dionex Ultimate 3000 UHPLC system coupled to a ThermoScientific Q Exactive Plus orbitrap mass spectrometer (Thermo Fisher Scientific Inc., Waltham, USA). […] The UV absorbance of samples at 230 nm and 260 nm was monitored using a Dionex Ultimate 3000 diode array detector. […]
# [4] = Metabolite profiling in rat hepatocytes and RLM; format: in vitro ADME
# Procedure: as §2, §3, §6
structure (smiles),measurement,setting,value
Cc1nn(C)cc1-c1nc2c(N3CCNCC3)c(Cl)cnc2[nH]1 [Compound M1],Kd,Aurora-A,33 nM
same,% total metabolite response,[1]; peak of initial increase,up to 7%
same,Kd,Aurora-B,130 nM
same,"metabolite abundance, % of parent LC-MS response at T0","[2]; HLM, final sampled time point",10.6%
same,"metabolite abundance, % of parent LC-MS response at T0",[2]; human hepatocytes and HLM,approximately 10%
same,"metabolite abundance, % of parent LC-MS response at T0","[2]; human hepatocytes, final sampled time point",9.4%
same,Kd,FLT3,7.9 nM
same,Kd,FLT3-ITD,82 nM
Cc1nn(C)cc1-c1nc2c(N3CC[N+]([O-])(Cc4ccc(Cl)cc4)CC3)c(Cl)cnc2[nH]1 [Compound M2],% total metabolite response,[1]; within the first 30 min of incubation,> 25%
same,"maximal metabolite abundance, % of T0 parent (LC-MS/MS response)",[1],> 10%
same,% total metabolite response,"[2]; HLM 1 mg/ml, 1 μM, 60 min incubation",3.5%
Cc1n[nH]cc1-c1nc2c(N3CCNCC3)c(Cl)cnc2[nH]1 [Compound M6],"% T0 parent response, minor metabolites",[1],< 2%
same,"metabolite abundance, % of T0 parent (LC-MS response)",[2],< 2%
Cc1n[nH]cc1-c1nc2c(N3CCN(Cc4ccc(Cl)cc4)CC3)c(Cl)cnc2[nH]1 [Compound M3],"% T0 parent response, minor metabolites",[1],< 2%
same,"metabolite abundance, % of parent LC-MS response at T0",[2]; human hepatocytes and HLM,< 2%
same,"maximal metabolite abundance, % of T0 parent (LC-MS/MS response)",[3],> 10%
Cc1nn(C)cc1-c1nc2c(NCCN)c(Cl)cnc2[nH]1 [Compound M7],"maximal metabolite abundance, % of T0 parent (LC-MS/MS response)",[1],> 10%
same,"metabolite abundance, % of T0 parent (LC-MS response)",[2],< 2%
Cc1nn(C)cc1-c1nc2c(NCCNCc3ccc(Cl)cc3)c(Cl)cnc2[nH]1 [Compound M4],"metabolite abundance, % of parent","[4]; RLM, at most",< 2%
same,"maximal metabolite abundance, % of T0 parent (LC-MS/MS response)",[4]; rat hepatocytes,8–10%
same,"metabolite abundance, % of parent LC-MS response at T0",[2]; human hepatocytes and HLM,< 2%
